According to patent US6489297B1, “Vasoactive intestinal peptide analogs” (Dabur Research Foundation, priority 2000, dated 2002):
Where a SMILES comes first, the peptide text is derived from it. [ ]: non-standard residue; d: D form. dPhe(4-Cl) = N[C@H](Cc1ccc(Cl)cc1)C(=O)O; Dpg = CCCC(N)(CCC)C(=O)O; Aib = CC(C)(N)C(=O)O

Key:
Type in all cases: cell-based, human
Settings in all cases: 72 hours
[1] = system: A549(non small cell lung); experiment: MTT cytotoxicity assay, A549 cells
Protocol: (§1) The cytotoxic activity of synthesized peptides was tested on […] human tumor cell lines namely PA-1 (ovary), SW620 (colon) HuTu80 (duodenum), L132 (lung), U87MG (glioblastoma), KB (oral), MIAPaCa2(pancreas), A549(non small cell lung) and HT-29(colon). The tumor cells were collected at exponential growth phase and resuspended in medium (1.5×10^6 cells/ml in RPMI 1640 containing 10% FBS). 150 μl of medium was added to the wells of a 96-well tissue culture plate (Nunc, Denmark) followed by 30 μl of cell suspension. The plate was left in incubator (37° C., 5% CO2) overnight. 20 μl of the peptide (100 pM to 1 uM concentration) was added to marked wells of the 96-well plate. Each concentration was plated in triplicates. 20 μl of medium alone was added to control wells while wells without cells served as blanks. A total volume of 200 μl was ensured in each well and plate was left in incubator (37° C., 5% CO2). After 72 hours of incubation an MTT assay was performed and percentage cytotoxicity was calculated with respect to control cells. Following Tables show the maximum cytotoxicity achieved on various cell lines.

HT-29(colon) = experiment: MTT cytotoxicity assay, HT-29 cells
Protocol: as §1

HuTu80 (duodenum) = experiment: MTT cytotoxicity assay, HuTu80 cells
Protocol: as §1

PA-1 (ovary) = experiment: MTT cytotoxicity assay, PA-1 cells
Protocol: as §1

L132 (lung) = experiment: MTT cytotoxicity assay, L132 cells
Protocol: as §1

KB (oral) = experiment: MTT cytotoxicity assay, KB cells
Protocol: as §1

SW620 (colon) = experiment: MTT cytotoxicity assay, SW620 cells
Protocol: as §1

MIAPaCa2(pancreas) = experiment: MTT cytotoxicity assay, MIAPaCa2 cells
Protocol: as §1

U87MG (glioblastoma) = experiment: MTT cytotoxicity assay, U87MG cells
Protocol: as §1

Q: What does the source list for CC[C@H](C)[C@H](NC(=O)[C@H](CO)NC(=O)[C@H](CC(N)=O)NC(=O)[C@H](CC(C)C)NC(=O)[C@H](Cc1ccc(O)cc1)NC(=O)[C@H](CCCCN)NC(=O)[C@H](CCCCN)NC(=O)[C@@H](NC(=O)[C@H](C)NC(=O)[C@H](CC(C)C)NC(=O)[C@H](CCC(N)=O)NC(=O)[C@H](CCCCN)NC(=O)[C@H](CCCNC(=N)N)NC(=O)[C@H](CC(C)C)NC(=O)[C@H](CCCNC(=N)N)NC(=O)[C@@H](NC(=O)[C@H](Cc1ccc(O)cc1)NC(=O)[C@H](CC(N)=O)NC(=O)[C@H](CC(=O)O)NC(=O)[C@@H](NC(=O)[C@@H](Cc1ccc(Cl)cc1)NC(=O)[C@@H](NC(=O)C(C)(C)NC(=O)[C@H](CC(=O)O)NC(=O)[C@H](CO)NC(=O)[C@@H](N)Cc1c[nH]cn1)C(C)C)[C@@H](C)O)[C@@H](C)O)C(C)C)C(=O)N[C@@H](CC(C)C)C(=O)N[C@@H](CC(N)=O)C(N)=O [SEQ ID NO: 2] (H-HSD[Aib]V[dPhe(4-Cl)]TDNYTRLRKQLAVKKYLNSILN-NH2)?
A: Percentage cytotoxicity ([1]; A549, 100 pM): 16 ± 5.5%; Percentage cytotoxicity ([1]; A549, 1 nM): 19 ± 4.5%; Percentage cytotoxicity ([1]; A549, 10 nM): 21 ± 5.5%; Percentage cytotoxicity ([1]; A549, 100 nM): 41 ± 6.0%; Percentage cytotoxicity ([1]; A549, 1 μM): 45 ± 5.5%; Percentage cytotoxicity (HT-29(colon); HT29, 100 pM): 26 ± 5.5%; Percentage cytotoxicity (HT-29(colon); HT29, 1 nM): 25 ± 4.5%; Percentage cytotoxicity (HT-29(colon); HT29, 10 nM): 25 ± 4.5%; Percentage cytotoxicity (HT-29(colon); HT29, 100 nM): 30 ± 5.8%; Percentage cytotoxicity (HT-29(colon); HT29, 1 μM): 38 ± 5.5%; Percentage cytotoxicity (HuTu80 (duodenum); HuTu80, 100 pM): 10 ± 3.5%; Percentage cytotoxicity (HuTu80 (duodenum); HuTu80, 1 nM): 20 ± 5.5%; Percentage cytotoxicity (HuTu80 (duodenum); HuTu80, 10 nM): 18 ± 4.5%; Percentage cytotoxicity (HuTu80 (duodenum); HuTu80, 100 nM): 24 ± 5.6%; Percentage cytotoxicity (HuTu80 (duodenum); HuTu80, 1 μM): 39 ± 4.5%; Percentage cytotoxicity (PA-1 (ovary); PA1, 100 pM): 16 ± 3.3%; Percentage cytotoxicity (PA-1 (ovary); PA1, 1 nM): 30.0 ± 6.7%; Percentage cytotoxicity (PA-1 (ovary); PA1, 10 nM): 28.9 ± 5.5%; Percentage cytotoxicity (PA-1 (ovary); PA1, 100 nM): 18.9 ± 4.2%; Percentage cytotoxicity (PA-1 (ovary); PA1, 1 μM): 16.5 ± 3.4%; Percentage cytotoxicity (L132 (lung); L132, 100 pM): 18 ± 2.3%; Percentage cytotoxicity (L132 (lung); L132, 1 nM): 28 ± 4.5%; Percentage cytotoxicity (L132 (lung); L132, 10 nM): 30.9 ± 7.0%; Percentage cytotoxicity (L132 (lung); L132, 100 nM): 18.9 ± 5.0%; Percentage cytotoxicity (L132 (lung); L132, 1 μM): 15.9 ± 7.5%; Percentage cytotoxicity (KB (oral); 100 pM): 47 ± 8.5%; Percentage cytotoxicity (KB (oral); 1 nM): 42 ± 8.0%; Percentage cytotoxicity (KB (oral); 10 nM): 34 ± 6.0%; Percentage cytotoxicity (KB (oral); 100 nM): 37 ± 5.0%; Percentage cytotoxicity (KB (oral); 1 μM): 43 ± 0.5%; Percentage cytotoxicity (SW620 (colon); SW620, 100 pM): 16.9 ± 4.5%; Percentage cytotoxicity (SW620 (colon); SW620, 1 nM): 28 ± 6.6%; Percentage cytotoxicity (SW620 (colon); SW620, 10 nM): 30 ± 4.5%; Percentage cytotoxicity (SW620 (colon); SW620, 100 nM): 23 ± 3.8%; Percentage cytotoxicity (SW620 (colon); SW620, 1 μM): 18.5 ± 5.1%; Percentage cytotoxicity (MIAPaCa2(pancreas); MIAPaCa2, 100 pM): 20 ± 6.5%; Percentage cytotoxicity (MIAPaCa2(pancreas); MIAPaCa2, 1 nM): 31 ± 5.0%; Percentage cytotoxicity (MIAPaCa2(pancreas); MIAPaCa2, 10 nM): 35 ± 3.5%; Percentage cytotoxicity (MIAPaCa2(pancreas); MIAPaCa2, 100 nM): 32 ± 4.5%; Percentage cytotoxicity (MIAPaCa2(pancreas); MIAPaCa2, 1 μM): 36 ± 0.5%; Percentage cytotoxicity (U87MG (glioblastoma); 100 pM): 10.5 ± 4.5%; Percentage cytotoxicity (U87MG (glioblastoma); 1 nM): 12 ± 7.6%; Percentage cytotoxicity (U87MG (glioblastoma); 10 nM): 28.9 ± 5.6%; Percentage cytotoxicity (U87MG (glioblastoma); 100 nM): 19.0 ± 7.0%; Percentage cytotoxicity (U87MG (glioblastoma); 1 μM): 14 ± 4.5%

Q: For CCCC(CCC)(NC(=O)[C@H](CCC(N)=O)NC(=O)[C@H](CCCCN)NC(=O)[C@H](CCCNC(=N)N)NC(=O)[C@H](CC(C)C)NC(=O)[C@H](CCCNC(=N)N)NC(=O)[C@@H](NC(=O)[C@H](Cc1ccc(O)cc1)NC(=O)[C@H](CC(N)=O)NC(=O)[C@H](CC(=O)O)NC(=O)[C@@H](NC(=O)[C@@H](Cc1ccc(Cl)cc1)NC(=O)[C@@H](NC(=O)C(C)(C)NC(=O)[C@H](CC(=O)O)NC(=O)[C@H](CO)NC(=O)[C@@H](N)Cc1c[nH]cn1)C(C)C)[C@@H](C)O)[C@@H](C)O)C(=O)N[C@@H](C)C(=O)N[C@H](C(=O)N[C@@H](CCCCN)C(=O)N[C@@H](CCCCN)C(=O)N[C@@H](Cc1ccc(O)cc1)C(=O)N[C@@H](CC(C)C)C(=O)N[C@@H](CC(N)=O)C(=O)N[C@@H](CO)C(=O)N[C@H](C(=O)N[C@@H](CC(C)C)C(=O)N[C@@H](CC(N)=O)C(N)=O)[C@@H](C)CC)C(C)C [SEQ ID NO: 10, His-Ser-Asp-Aib-Val-4-Cl-D-Phe-Thr-Asp-Asn-Tyr-Thr-Arg-Leu-Arg-Lys-Gln-Dpg-Ala-Val-Lys-Lys-Tyr-Leu-Asn-Ser-Ile-Leu-Asn-NH2] (H-HSD[Aib]V[dPhe(4-Cl)]TDNYTRLRKQ[Dpg]AVKKYLNSILN-NH2), which Percentage cytotoxicity (HuTu80 (duodenum); HuTu80, 100 pM) is on record?
A: Its Percentage cytotoxicity is 15 ± 7.8%.

Q: And the Percentage cytotoxicity (HuTu80 (duodenum); HuTu80, 1 nM)?
A: Its Percentage cytotoxicity is 31 ± 7.0%.

Q: And the Percentage cytotoxicity (HuTu80 (duodenum); HuTu80, 10 nM)?
A: The Percentage cytotoxicity was 28 ± 5.0%.

Q: And the Percentage cytotoxicity (HuTu80 (duodenum); HuTu80, 100 nM)?
A: Its Percentage cytotoxicity is 28 ± 8.0%.

Q: What about the Percentage cytotoxicity (HuTu80 (duodenum); HuTu80, 1 μM) of the same compound?
A: Its Percentage cytotoxicity is 16 ± 4.5%.

Q: And the Percentage cytotoxicity (PA-1 (ovary); PA1, 100 pM)?
A: Its Percentage cytotoxicity is 28 ± 0.0%.

Q: And the Percentage cytotoxicity (PA-1 (ovary); PA1, 1 nM)?
A: Its Percentage cytotoxicity is 31 ± 6.0%.

Q: What about the Percentage cytotoxicity (PA-1 (ovary); PA1, 10 nM) of the same compound?
A: Its Percentage cytotoxicity is 26 ± 3.0%.

Q: And the Percentage cytotoxicity (PA-1 (ovary); PA1, 100 nM)?
A: The Percentage cytotoxicity was 25 ± 5.0%.

Q: And the Percentage cytotoxicity (PA-1 (ovary); PA1, 1 μM)?
A: Its Percentage cytotoxicity is 23 ± 6.5%.

Q: What about the Percentage cytotoxicity (L132 (lung); L132, 100 pM) of the same compound?
A: The Percentage cytotoxicity was 15 ± 7.0%.

Q: And the Percentage cytotoxicity (L132 (lung); L132, 1 nM)?
A: Its Percentage cytotoxicity is 28 ± 6.0%.

Q: What about the Percentage cytotoxicity (L132 (lung); L132, 10 nM) of the same compound?
A: Its Percentage cytotoxicity is 31 ± 6.0%.

Q: And the Percentage cytotoxicity (L132 (lung); L132, 100 nM)?
A: Its Percentage cytotoxicity is 29 ± 5.5%.

Q: And the Percentage cytotoxicity (L132 (lung); L132, 1 μM)?
A: The Percentage cytotoxicity was 17 ± 5.0%.

Q: What about the Percentage cytotoxicity (KB (oral); 100 pM) of the same compound?
A: Its Percentage cytotoxicity is 12 ± 8.0%.

Q: What about the Percentage cytotoxicity (KB (oral); 1 nM) of the same compound?
A: The Percentage cytotoxicity was 32 ± 7.8%.

Q: And the Percentage cytotoxicity (KB (oral); 10 nM)?
A: Its Percentage cytotoxicity is 26 ± 7.8%.

Q: And the Percentage cytotoxicity (KB (oral); 100 nM)?
A: Its Percentage cytotoxicity is 27 ± 6.0%.

Q: What about the Percentage cytotoxicity (KB (oral); 1 μM) of the same compound?
A: The Percentage cytotoxicity was 30 ± 5.0%.

Q: What about the Percentage cytotoxicity (SW620 (colon); SW620, 100 pM) of the same compound?
A: Its Percentage cytotoxicity is 17 ± 4.0%.

Q: What about the Percentage cytotoxicity (SW620 (colon); SW620, 1 nM) of the same compound?
A: The Percentage cytotoxicity was 30 ± 6.5%.

Q: And the Percentage cytotoxicity (SW620 (colon); SW620, 10 nM)?
A: The Percentage cytotoxicity was 29 ± 5.0%.

Q: And the Percentage cytotoxicity (SW620 (colon); SW620, 100 nM)?
A: Its Percentage cytotoxicity is 24 ± 7.3%.

Q: What about the Percentage cytotoxicity (SW620 (colon); SW620, 1 μM) of the same compound?
A: The Percentage cytotoxicity was 16 ± 5.5%.

Q: And the Percentage cytotoxicity (U87MG (glioblastoma); 100 pM)?
A: Its Percentage cytotoxicity is 12 ± 5.0%.

Q: What about the Percentage cytotoxicity (U87MG (glioblastoma); 1 nM) of the same compound?
A: The Percentage cytotoxicity was 16 ± 7.8%.

Q: And the Percentage cytotoxicity (U87MG (glioblastoma); 10 nM)?
A: The Percentage cytotoxicity was 30.1 ± 4.0%.

Q: And the Percentage cytotoxicity (U87MG (glioblastoma); 100 nM)?
A: The Percentage cytotoxicity was 29 ± 7.0%.

Q: What about the Percentage cytotoxicity (U87MG (glioblastoma); 1 μM) of the same compound?
A: Its Percentage cytotoxicity is 29 ± 4.0%.
